Source: patent US20240277890A1, “ANTIMICROBIAL ARTICLES COMPRISING POLYURETHANE” (Amicoat AS, priority 2021, published 2024)
Converted amounts (≈) assume the structure as drawn.

Legend:
[1] = system: Salmonella sp - multi-drug resistant clinical isolate; test: MIC microbroth dilution (CLSI); assay type: cell-based
[2] = system: Shigella sp - antibiotic-susceptible clinical isolate; test: MIC microbroth dilution (CLSI); assay type: cell-based
[3] = system: Propionibacterium acnes- antibiotic-susceptible clinical isolate; test: MIC microbroth dilution (CLSI); assay type: cell-based; conditions: P. acnes antibiotic-susceptible
Method: Supplemented Brucella broth (SBB) was used for the anaerobic strains with an inoculum of approximately 10^6 CFU/mL. SBB is a broth consisting of 1% peptone, 0.5% ‘Lab-lemco’, 1% glucose and 0.5% sodium chloride supplemented with 5 μg/L haemin and 1 μg/L vitamin K (both obtained from Sigma Aldrich Ltd.) Yeast and filamentous fungal MIC were performed in MOPS buffered RPMI 1640 medium (MOPS buffer obtained from Sigma Aldrich Ltd., RPMI 1640 obtained from Invitrogen Ltd, Paisley, Scotland). The yeast inocula were in the range 7.5×10^2-4×10^3 CFU/mL and the filamentous fungi approximately 8×10^3-1×10^5 CFU/mL.
MICs were determined as described in Example 2.

[4] = system: Staphylococcus aureus FDA486; test: Murine skin infection model, one day topical treatment; assay type: in vivo, mice; conditions: 2% cream; compared to placebo cream, Fucidin ointment 2% and Bactroban cream 2%
Method: The skin of mice was infected with Staphylococcus aureus or Streptococcus pyogenes and subsequently given a total of three treatments at three hourly intervals. Three hours after the last treatment, skin biopsies were collected and the number of colony forming units (CFUs) present in the skin sample was determined. Results are shown in FIGS. 3, 4 and 5 expressed as the number of colony forming units per mouse.

[5] = system: Candida albicans ATCC90028 - reference strain
[6] = system: Aspergillus niger - G.R. Micro collection
[7] = system: Trichophyton mentagrophytes - G.R. Micro collection
[8] = system: Trichophyton interdigitale - G.R. Micro collection
[9] = system: Microsporum canis - G.R. Micro collection
[10] = system: Klebsiella aerogenes - multi-drug resistant clinical isolate
[11] = system: Enterobacter sp - multi-drug resistant clinical isolate
[12] = system: Pseudomonas aeruginosa - multi-drug resistant clinical isolate
[13] = system: Haemophilus influenzae β-lactamase negative ampicillin-resistant clinical isolate
[14] = system: Staphylococcus aureus ATCC 25923 - antibiotic-susceptible control strain
[15] = system: Staphylococcus aureus ATCC 43300 - methicillin-resistant control strain
[16] = system: Staphylococcus aureus - teicoplanin-intermediate clinical isolate
[17] = system: Staphylococcus epidermidis methicillin-resistant clinical isolate
[18] = system: Staphylococcus saprophyticus - antibiotic susceptible clinical isolate
[19] = system: Enterococcus faecalis high-level gentamicin-resistant clinical isolate
[20] = system: Enterococcus faecium vancomycin-resistant (VanA) clinical isolate
[21] = system: Enterococcus gallinarum vancomycin-resistant (VanC) clinical isolate
[22] = system: Streptococcus pyogenes - Macrolide (MLS) resistant clinical isolate
[23] = system: MU50 Staphylococcus aureus (MRSA) - VISA type strain
[24] = system: EMRSA15 Staphylococcus aureus (MRSA) - SSCmec type 4; conditions: EMRSA15 - SSCmec type 4
[25] = system: HT2001254 Staphylococcus aureus (MRSA) - PVL positive; conditions: HT2001254 S. aureus (MRSA) PVL positive
[26] = system: Streptococcus agalactiae - antibiotic-susceptible clinical isolate
[27] = system: Group G Streptococcus - antibiotic-susceptible clinical isolate
[28] = system: Group G Streptococcus - macrolide-resistant clinical isolate
[29] = system: Streptococcus bovis - antibiotic-susceptible clinical isolate
[30] = system: Staphylococcus aureus, strain ATCC 25923; conditions: ATCC 25923
[31] = system: Methicillin resistant Staphylococcus aureus (MRSA) strain ATCC 33591; conditions: ATCC 33591
[32] = system: Methicillin resistant Staphylococcus epidermidis (MRSE) strain ATCC 27626; conditions: ATCC 27626

CCCCCCNC(=O)[C@H](CCCNC(=N)N)NC(=O)[C@H](Cc1c(C(C)(C)C)[nH]c2c(C(C)(C)C)cc(C(C)(C)C)cc12)NC(=O)[C@@H](N)CCCNC(=N)N [Compound 8]
MIC [1]: 8 µg/mL (≈ 10.4 µM)
MIC [2]: 4 µg/mL (≈ 5.21 µM)
MIC [3]: 4 µg/mL (≈ 5.21 µM)
number of CFUs in skin biopsy [4]: more effective at reducing the number of CFUs than the placebo and fucidin or bactroban
MIC [5]: 4 µg/mL (≈ 5.21 µM)
MIC [6]: 4 µg/mL (≈ 5.21 µM)
MIC [7]: 4 µg/mL (≈ 5.21 µM)
MIC [8]: 4 µg/mL (≈ 5.21 µM)
MIC [9]: 4 µg/mL (≈ 5.21 µM)
MIC [10]: 8 µg/mL (≈ 10.4 µM)
MIC [11]: 8 µg/mL (≈ 10.4 µM)
MIC [12]: 4 µg/mL (≈ 5.21 µM)
MIC [13]: 8 µg/mL (≈ 10.4 µM)
MIC [14]: 4 µg/mL (≈ 5.21 µM)
MIC [15]: 4 µg/mL (≈ 5.21 µM)
MIC [16]: 4 µg/mL (≈ 5.21 µM)
MIC [17]: 2 µg/mL (≈ 2.6 µM)
MIC [18]: 0.5 µg/mL (≈ 0.651 µM)
MIC [19]: 8 µg/mL (≈ 10.4 µM)
MIC [20]: 4 µg/mL (≈ 5.21 µM)
MIC [21]: 4 µg/mL (≈ 5.21 µM)
MIC [22]: 8 µg/mL (≈ 10.4 µM)
MIC [23]: 4 µg/mL (≈ 5.21 µM)
MIC [24]: 4 µg/mL (≈ 5.21 µM)
MIC [25]: 4 µg/mL (≈ 5.21 µM)
MIC [26]: 8 µg/mL (≈ 10.4 µM)
MIC [27]: 8 µg/mL (≈ 10.4 µM)
MIC [28]: 8 µg/mL (≈ 10.4 µM)
MIC [29]: 8 µg/mL (≈ 10.4 µM)
S. aureus (MIC) [30]: 2 µg/mL
MRSA (MIC) [31]: 2 µg/mL
MRSE (MIC) [32]: <1 µg/mL
C. albicans (MIC) (C. albicans): 5 µg/mL
S. pyogenes (MIC) (S. pyogenes): 2 µg/mL
P. aeruginosa (MIC) (P. aeruginosa): 5 µg/mL
